Experimental data as given in ChEMBL document CHEMBL6087474, “Discovery of an Efficacious RET PROTAC Degrader with Enhanced Antiproliferative Activity against Resistant Cancer Cells Harboring RET Solvent-Front Mutations” (J Med Chem, 2025).

Experiments:
BaF3 [1] = experiment: PROTAC activity at CRBN/KIF5B-RET (unknown origin) expressed in mouse BaF3 cells assessed as induction of RET degradation at 10 nM measured after 6 hrs by Western blot analysis relative to control; type: cell-based
BaF3 [2] = experiment: PROTAC activity at CRBN/KIF5B-RET (unknown origin) expressed in mouse BaF3 cells assessed as induction of RET degradation at 100 nM measured after 6 hrs by Western blot analysis relative to control; type: cell-based
BaF3 [3] = experiment: PROTAC activity at CRBN/KIF5B-RET (unknown origin) expressed in mouse BaF3 cells assessed as induction of RET degradation at 1000 nM measured after 6 hrs by Western blot analysis relative to control; type: cell-based
BaF3 [4] = experiment: Antiproliferative activity against mouse BaF3 cells stably expressing KIF5B-RET fusion protein incubated for 72 hrs by CCK-8 assay; type: functional, cell-based; settings: BaF3, 72 h
BaF3 [5] = experiment: Antiproliferative activity against mouse BaF3 cells stably expressing KIF5B-RET-G810C mutant incubated for 72 hrs by CCK-8 assay; type: functional, cell-based; settings: BaF3, 72 h
BaF3 [6] = experiment: Antiproliferative activity against mouse BaF3 cells stably expressing KIF5B-RET-G810R mutant incubated for 72 hrs by CCK-8 assay; type: functional, cell-based; settings: BaF3, 72 h
BaF3 [7] = experiment: Antiproliferative activity against mouse BaF3 cells stably expressing KIF5B-RET-V804M mutant incubated for 72 hrs by CCK-8 assay; type: functional, cell-based; settings: BaF3, 72 h
BaF3 [8] = experiment: Antiproliferative activity against mouse BaF3 cells stably expressing KIF5B-RET-V804L mutant incubated for 72 hrs by CCK-8 assay; type: functional, cell-based; settings: BaF3, 72 h
BaF3 [9] = experiment: Antiproliferative activity against mouse BaF3 cells stably expressing KIF5B-RET-G810S mutant incubated for 72 hrs by CCK-8 assay; type: functional, cell-based; settings: BaF3, 72 h
BaF3 [10] = experiment: Antiproliferative activity against mouse BaF3 cells stably expressing CCDC6-RET incubated for 72 hrs by CCK-8 assay; type: functional, cell-based; settings: BaF3, 72 h
BaF3 [11] = experiment: Antiproliferative activity against mouse BaF3 cells stably expressing CCDC6-RET-V804M mutant incubated for 72 hrs by CCK-8 assay; type: functional, cell-based; settings: BaF3, 72 h
BaF3 [12] = experiment: Antiproliferative activity against mouse BaF3 cells stably expressing CCDC6-RET-G810C mutant incubated for 72 hrs by CCK-8 assay; type: functional, cell-based; settings: BaF3, 72 h
BaF3 [13] = experiment: PROTAC activity at VHL/KIF5B-RET (unknown origin) expressed in mouse BaF3 cells assessed as induction of RET degradation at 10 nM measured after 6 hrs by Western blot analysis relative to control; type: cell-based
BaF3 [14] = experiment: PROTAC activity at VHL/KIF5B-RET (unknown origin) expressed in mouse BaF3 cells assessed as induction of RET degradation at 100 nM measured after 6 hrs by Western blot analysis relative to control; type: cell-based
BaF3 [15] = experiment: PROTAC activity at VHL/KIF5B-RET (unknown origin) expressed in mouse BaF3 cells assessed as induction of RET degradation at 1000 nM measured after 6 hrs by Western blot analysis relative to control; type: cell-based

## COc1ccc(CN2C3CC2CN(c2ccc(-c4cc(-c5cnn(C6CCN(CC#Cc7cccc8c7CN(C7CCC(=O)NC7=O)C8=O)CC6)c5)cn5ncc(C#N)c45)cn2)C3)cn1 (centres undefined)
BaF3 [1]
  Activity: 9%
BaF3 [2]
  Activity: 7%
BaF3 [3]
  Activity: 14%

## COc1ccc(CN2C3CC2CN(c2ccc(-c4cc(-c5cnn(C6CCN(CCCCCCC#Cc7cccc8c7CN(C7CCC(=O)NC7=O)C8=O)CC6)c5)cn5ncc(C#N)c45)cn2)C3)cn1 (centres undefined)
BaF3 [1]
  Activity: 35%
BaF3 [2]
  Activity: 46%
BaF3 [3]
  Activity: 47%

## COc1ccc(CN2C3CC2CN(c2ccc(-c4cc(-c5cnn(C6CCN(CCCCCC#Cc7cccc8c7CN(C7CCC(=O)N(C)C7=O)C8=O)CC6)c5)cn5ncc(C#N)c45)cn2)C3)cn1 (centres undefined)
BaF3 [4]
  IC50: 20 nM
BaF3 [5]
  IC50: 700 nM
BaF3 [6]
  IC50: 1690 nM
BaF3 [7]
  IC50: 70 nM
BaF3 [8]
  IC50: 50 nM
BaF3 [9]
  IC50: 240 nM
BaF3 [10]
  IC50: 10 nM
BaF3 [11]
  IC50: 20 nM
BaF3 [12]
  IC50: 100 nM

## COc1ccc(CN2C3CC2CN(c2ccc(-c4cc(-c5cnn(CCCCCCCCC(=O)N[C@H](C(=O)N6C[C@H](O)C[C@H]6C(=O)N[C@@H](C)c6ccc(-c7scnc7C)cc6)C(C)(C)C)c5)cn5ncc(C#N)c45)cn2)C3)cn1
BaF3 [13]
  Activity: 1%
BaF3 [14]
  Activity: 34%
BaF3 [15]
  Activity: 39%

## COc1ccc(CN2C3CC2CN(c2ccc(-c4cc(OCC(C)(C)O)cn5ncc(C#N)c45)cn2)C3)cn1 [SELPERCATINIB]
BaF3 [5]
  IC50: 690 nM
BaF3 [6]
  IC50: 1060 nM
BaF3 [8]
  IC50: 30 nM
BaF3 [9]
  IC50: 570 nM
BaF3 [11]
  IC50: 50 nM
BaF3 [12]
  IC50: 350 nM

## COc1ccc(CN2C3CC2CN(c2ccc(-c4cc(-c5cnn(CCCCCCCCC#Cc6cccc7c6CN(C6CCC(=O)NC6=O)C7=O)c5)cn5ncc(C#N)c45)cn2)C3)cn1 (centres undefined)
BaF3 [1]
  Activity: 17%
BaF3 [2]
  Activity: 47%
BaF3 [3]
  Activity: 34%

## COc1ccc(CN2C3CC2CN(c2ccc(-c4cc(-c5cnn(CCCCCCCCCCCCCCC(=O)N[C@H](C(=O)N6C[C@H](O)C[C@H]6C(=O)N[C@@H](C)c6ccc(-c7scnc7C)cc6)C(C)(C)C)c5)cn5ncc(C#N)c45)cn2)C3)cn1
BaF3 [13]
  Activity: -6%
BaF3 [14]
  Activity: 3%
BaF3 [15]
  Activity: 20%

## COc1ccc(CN2C3CC2CN(c2ccc(-c4cc(-c5cnn(CCCCCCC#Cc6cccc7c6CN(C6CCC(=O)NC6=O)C7=O)c5)cn5ncc(C#N)c45)cn2)C3)cn1 (centres undefined)
BaF3 [1]
  Activity: 27%
BaF3 [2]
  Activity: 31%
BaF3 [3]
  Activity: 22%

## COc1ccc(CN2C3CC2CN(c2ccc(-c4cc(-c5cnn(C6CCN(CCCCCCCC#Cc7cccc8c7CN(C7CCC(=O)NC7=O)C8=O)CC6)c5)cn5ncc(C#N)c45)cn2)C3)cn1 (centres undefined)
BaF3 [1]
  Activity: 12%
BaF3 [2]
  Activity: 16%
BaF3 [3]
  Activity: 30%

## COc1ccc(CN2C3CC2CN(c2ccc(-c4cc(-c5cnn(CCCCCCCCCCC#Cc6cccc7c6CN(C6CCC(=O)NC6=O)C7=O)c5)cn5ncc(C#N)c45)cn2)C3)cn1 (centres undefined)
BaF3 [1]
  Activity: 15%
BaF3 [2]
  Activity: 39%
BaF3 [3]
  Activity: 54%

## COc1ccc(CN2C3CC2CN(c2ccc(-c4cc(-c5cnn(CCCCC#Cc6cccc7c6CN(C6CCC(=O)NC6=O)C7=O)c5)cn5ncc(C#N)c45)cn2)C3)cn1 (centres undefined)
BaF3 [1]
  Activity: 19%
BaF3 [2]
  Activity: 23%
BaF3 [3]
  Activity: 21%

## COc1ccc(CN2C3CC2CN(c2ccc(-c4cc(-c5cnn(CCOCCOCCC(=O)N[C@H](C(=O)N6C[C@H](O)C[C@H]6C(=O)N[C@@H](C)c6ccc(-c7scnc7C)cc6)C(C)(C)C)c5)cn5ncc(C#N)c45)cn2)C3)cn1
BaF3 [13]
  Activity: 8%
BaF3 [14]
  Activity: 1%
BaF3 [15]
  Activity: -5%

## COc1ccc(CN2C3CC2CN(c2ccc(-c4cc(-c5cnn(CCCCCCCCCCC(=O)N[C@H](C(=O)N6C[C@H](O)C[C@H]6C(=O)N[C@@H](C)c6ccc(-c7scnc7C)cc6)C(C)(C)C)c5)cn5ncc(C#N)c45)cn2)C3)cn1
BaF3 [13]
  Activity: 17%
BaF3 [14]
  Activity: 39%
BaF3 [15]
  Activity: 32%

## COc1ccc(CN2C3CC2CN(c2ccc(-c4cc(-c5cnn(C6CCN(CC(=O)N7CCN(c8ccc9c(c8)C(=O)N(C8CCC(=O)NC8=O)C9=O)CC7)CC6)c5)cn5ncc(C#N)c45)cn2)C3)cn1 (centres undefined)
BaF3 [1]
  Activity: 30%
BaF3 [2]
  Activity: 34%
BaF3 [3]
  Activity: 32%

## COc1ccc(CN2C3CC2CN(c2ccc(-c4cc(-c5cnn(CCCCC(=O)N[C@H](C(=O)N6C[C@H](O)C[C@H]6C(=O)N[C@@H](C)c6ccc(-c7scnc7C)cc6)C(C)(C)C)c5)cn5ncc(C#N)c45)cn2)C3)cn1
BaF3 [13]
  Activity: -14%
BaF3 [14]
  Activity: -11%
BaF3 [15]
  Activity: -11%

## COc1ccc(CN2C3CC2CN(c2ccc(-c4cc(-c5cnn(C6CCN(C(=O)CN7CCN(c8ccc9c(c8)C(=O)N(C8CCC(=O)NC8=O)C9=O)CC7)CC6)c5)cn5ncc(C#N)c45)cn2)C3)cn1 (centres undefined)
BaF3 [1]
  Activity: 37%
BaF3 [2]
  Activity: 49%
BaF3 [3]
  Activity: 41%

## COc1ccc(CN2C3CC2CN(c2ccc(-c4cc(-c5cnn(C6CCN(CCCC#Cc7cccc8c7CN(C7CCC(=O)NC7=O)C8=O)CC6)c5)cn5ncc(C#N)c45)cn2)C3)cn1 (centres undefined)
BaF3 [1]
  Activity: 19%
BaF3 [2]
  Activity: 35%
BaF3 [3]
  Activity: 51%

## COc1ccc(CN2C3CC2CN(c2ccc(-c4cc(-c5cnn(CCCCCCC(=O)N[C@H](C(=O)N6C[C@H](O)C[C@H]6C(=O)N[C@@H](C)c6ccc(-c7scnc7C)cc6)C(C)(C)C)c5)cn5ncc(C#N)c45)cn2)C3)cn1
BaF3 [13]
  Activity: 16%
BaF3 [14]
  Activity: 49%
BaF3 [15]
  Activity: 51%

## COc1ccc(CN2C3CC2CN(c2ccc(-c4cc(-c5cnn(CCC#Cc6cccc7c6CN(C6CCC(=O)NC6=O)C7=O)c5)cn5ncc(C#N)c45)cn2)C3)cn1 (centres undefined)
BaF3 [1]
  Activity: 15%
BaF3 [2]
  Activity: 26%
BaF3 [3]
  Activity: 25%

## COc1ccc(CN2C3CC2CN(c2ccc(-c4cc(-c5cnn(C6CCN(CCCCC#Cc7cccc8c7CN(C7CCC(=O)NC7=O)C8=O)CC6)c5)cn5ncc(C#N)c45)cn2)C3)cn1 (centres undefined)
BaF3 [1]
  Activity: 16%
BaF3 [2]
  Activity: 42%
BaF3 [3]
  Activity: 48%
